Values after ≈ are worked out from the molar mass of the structure shown. Starred links: 1 amine or outer side, 2 acyl side, 3 side chain; linkers in the order of their positions; H or OH if unused. Non-standard residues stand in square brackets, D forms with d. Residues, ends and D or L forms follow the SMILES beside them. Groups on a side chain read outwards from the residue. *: point of attachment. C18 diacid = O=C(O)CCCCCCCCCCCCCCCCC(=O)*; γGlu = O=C(O)[C@H](CCC(=O)[*:2])N[*:1]; AEEA = NCCOCCOCC(=O)O; Aib = CC(C)(N)C(=O)O
Assays:
Type in all cases: physicochemical
[1] = Physical stability, dynamic light scattering assay (Example 15); settings: for Apparent Rh [nm] 4 weeks / Scattering Intensity (I) [%] 4 weeks: 4 weeks at 40° C.
Summary of the method: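 DLS at 837 nm, 150° angle, +25° C; Rh, scattering intensity and mass contribution measured at 0 weeks and after 4 weeks at 40° C. Rh and D compared at 1, 5 and 10 mg/ml as kD surrogate; separate measurements at 300 μM, purity-corrected.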

[2] = Solubility in buffer systems by UPLC-UV (Example 13)
Summary of the method: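 Quantitation used UV peak area from UPLC of the 1:10-diluted supernatant, set against a reference-compound standard curve with extinction coefficients adjusted for amino acid sequence.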

[3] = Physical stability, Thioflavin T fibrillation assay (Example 14); settings: Buffer B: 100 mM acetate buffer, pH 4.5, 2.7 mg/ml m-cresol; 3 mg/ml; 37° C. shaking
Summary of the method: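 Fibrillation tendency was judged from lag time and rise in Thioflavin T fluorescence, measured every 20 minutes over eight replicates per sample. Peptides at 3 mg/ml final were held at 37° C under cycles of 10 s shaking (960 rpm) and 50 s rest.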

[4] = Buffer A (100 mM acetate, pH 4.5)
[5] = pH 4.5, Solubility in Buffer A [mg/ml]
[6] = Buffer D (20 mM phosphate, pH 7.4)
[7] = pH 4.5, Solubility in Buffer B [mg/ml]
[8] = pH 7.4, Solubility in Buffer C [mg/ml]
[9] = Buffer B (100 mM acetate, pH 4.5, 2.7 mg/ml m-cresol)
[10] = Buffer E (20 mM acetate, pH 4.5)

Apparent Rh [nm] 0 weeks [1, 4] [nm]	Scattering Intensity (I) [%] 0 weeks [1, 4] [%]	Apparent Rh [nm] 4 weeks [1, 4] [nm]	Scattering Intensity (I) [%] 4 weeks [1, 4] [%]	solubility at 1 h [2, 5] [µg/mL]	Apparent Rh [nm] 0 weeks [1, 6] [nm]	Scattering Intensity (I) [%] 0 weeks [1, 6] [%]	Apparent Rh [nm] 4 weeks [1, 6] [nm]	Scattering Intensity (I) [%] 4 weeks [1, 6] [%]	solubility at 1 h [2, 7] [µg/mL]	solubility at 1 h [2, 8] [µg/mL]	Apparent Rh [nm] 0 weeks [1, 9] [nm]	Scattering Intensity (I) [%] 0 weeks [1, 9] [%]	Apparent Rh [nm] 4 weeks [1, 9] [nm]	Scattering Intensity (I) [%] 4 weeks [1, 9] [%]	Compound	other results
3.32 ± 0.18	100 ± 1	3.42 ± 0.04	99 ± 1	> 10000	–	–	–	–	–	–	–	–	–	–	CC[C@H](C)[C@H](N)C(=O)N[C@H](C(=O)N[C@@H](CC(C)C)C(=O)N[C@@H](CO)C(=O)N[C@@H](CC(C)C)C(=O)N[C@@H](CC(=O)O)C(=O)N[C@H](C(=O)N1CCC[C@H]1C(=O)N[C@H](C(=O)N[C@@H](CCCCN)C(=O)N[C@@H](CC(C)C)C(=O)N[C@@H](CCCCNC(=O)COCCOCCNC(=O)COCCOCCNC(=O)CC[C@H](NC(=O)CCCCCCCCCCCCCCCCC(=O)O)C(=O)O)C(=O)N[C@@H](CCCCN)C(=O)N[C@H](C(=O)N[C@@H](CC(C)C)C(=O)N[C@@H](CC(C)C)C(=O)N[C@@H](CCCCN)C(=O)N[C@@H](CCC(N)=O)C(=O)N[C@@H](CCC(=O)O)C(=O)N[C@@H](CCCNC(=N)N)C(=O)N[C@@H](CCC(N)=O)C(=O)N[C@@H](CCCCN)C(=O)N[C@@H](CCCCN)C(=O)NC(C)(C)C(=O)N[C@@H](CCCNC(=N)N)C(=O)N[C@@H](CCC(=O)O)C(=O)N[C@@H](CCC(N)=O)C(=O)N[C@@H](C)C(=O)N[C@@H](CCC(=O)O)C(=O)N[C@@H](CCCCN)C(=O)N[C@@H](CC(N)=O)C(=O)N[C@@H](CCCCN)C(=O)N[C@@H](CCC(N)=O)C(=O)N[C@H](C(=O)N[C@@H](CC(C)C)C(=O)N[C@@H](C)C(=O)N[C@@H](CCC(N)=O)C(=O)N[C@H](C(N)=O)C(C)C)[C@@H](C)CC)[C@@H](C)CC)[C@@H](C)CC)C(C)C)C(C)C [compound 99] (H-IVLSLDVPIKLK([AEEA-AEEA-γGlu-C18 diacid])KILLKQERQKK[Aib]REQAEKNKQILAQV-NH2)	Increase in FI (fluorescence intensity) [3]: No; Lag time [3]: >45 h
2.75 ± 0.14	98 ± 3	2.70 ± 0.28	97 ± 2	> 8400	2.40 ± 0.15	98 ± 3	2.48 ± 0.07	98 ± 2	> 8600	7800 (≈ 1510 µM)	–	–	–	–	CC[C@H](C)[C@H](N)C(=O)N[C@H](C(=O)N[C@@H](CC(C)C)C(=O)N[C@@H](CO)C(=O)N[C@@H](CC(C)C)C(=O)N[C@@H](CC(=O)O)C(=O)N[C@@H](C(=O)N1CCC[C@H]1C(=O)N[C@H](C(=O)N[C@@H](CCCCN)C(=O)N[C@@H](CC(C)C)C(=O)N[C@@H](CCCCNC(=O)COCCOCCNC(=O)COCCOCCNC(=O)CC[C@H](NC(=O)CCCCCCCCCCCCCCCCC(=O)O)C(=O)O)C(=O)N[C@@H](CCC(N)=O)C(=O)N[C@H](C(=O)N[C@@H](CC(C)C)C(=O)N[C@@H](CC(C)C)C(=O)N[C@@H](CCCCN)C(=O)N[C@@H](CCC(N)=O)C(=O)N[C@@H](CCC(=O)O)C(=O)N[C@@H](CCCNC(=N)N)C(=O)N[C@@H](CCC(N)=O)C(=O)N[C@@H](CCCCN)C(=O)N[C@@H](CCCCN)C(=O)NC(C)(C)C(=O)N[C@@H](CCCNC(=N)N)C(=O)N[C@@H](CCC(N)=O)C(=O)N[C@@H](CCCCN)C(=O)N[C@@H](C)C(=O)N[C@@H](CCC(=O)O)C(=O)N[C@@H](CCCCN)C(=O)N[C@@H](CC(N)=O)C(=O)N[C@@H](CCCCN)C(=O)N[C@@H](CCC(N)=O)C(=O)N[C@H](C(=O)N[C@@H](CC(C)C)C(=O)N[C@@H](C)C(=O)N[C@@H](CCC(N)=O)C(=O)N[C@H](C(N)=O)C(C)C)[C@@H](C)CC)[C@@H](C)CC)[C@@H](C)CC)C(C)C)C(C)C [compound 136] (H-IVLSLD[dV]PIKLK([AEEA-AEEA-γGlu-C18 diacid])QILLKQERQKK[Aib]RQKAEKNKQILAQV-NH2; N-terminus assumed)	–
3.31 ± 0.15	94 ± 1	3.34 ± 0.25	100 ± 0	> 8600	2.66 ± 0.13	84 ± 6	2.65 ± 0.11	88 ± 9	> 8400	> 8700	3.50 ± 0.03	100 ± 0	3.60 ± 0.10	100 ± 0	CC[C@H](C)[C@H](N)C(=O)N[C@H](C(=O)N[C@@H](CC(C)C)C(=O)N[C@@H](CO)C(=O)N[C@@H](CC(C)C)C(=O)N[C@@H](CC(=O)O)C(=O)N[C@@H](C(=O)N1CCC[C@H]1C(=O)N[C@H](C(=O)N[C@@H](CCCCN)C(=O)N[C@@H](CC(C)C)C(=O)N[C@@H](CCCCNC(=O)COCCOCCNC(=O)COCCOCCNC(=O)CC[C@H](NC(=O)CCCCCCCCCCCCCCCCC(=O)O)C(=O)O)C(=O)N[C@@H](CCC(N)=O)C(=O)N[C@H](C(=O)N[C@@H](CC(C)C)C(=O)N[C@@H](CC(C)C)C(=O)N[C@@H](CCCCN)C(=O)N[C@@H](CCC(N)=O)C(=O)N[C@@H](CCC(=O)O)C(=O)N[C@@H](CCCNC(=N)N)C(=O)N[C@@H](CCC(N)=O)C(=O)N[C@@H](CCCCN)C(=O)N[C@@H](CCCCN)C(=O)N[C@@H](CCC(N)=O)C(=O)N[C@@H](CCCNC(=N)N)C(=O)N[C@@H](CCC(=O)O)C(=O)N[C@@H](CCC(N)=O)C(=O)N[C@@H](C)C(=O)N[C@@H](CCC(=O)O)C(=O)N[C@@H](CCCCN)C(=O)N[C@@H](CC(N)=O)C(=O)N[C@@H](CCCCN)C(=O)N[C@@H](CCC(N)=O)C(=O)N[C@H](C(=O)N[C@@H](CC(C)C)C(=O)N[C@@H](CCC(=O)O)C(=O)N[C@@H](CCC(N)=O)C(=O)N[C@H](C(N)=O)C(C)C)[C@@H](C)CC)[C@@H](C)CC)[C@@H](C)CC)C(C)C)C(C)C [compound 137] (H-IVLSLD[dV]PIKLK([AEEA-AEEA-γGlu-C18 diacid])QILLKQERQKKQREQAEKNKQILEQV-NH2; N-terminus assumed)	Apparent Rh [nm] 0 weeks [1, 10]: 2.38 ± 0.13 nm; Scattering Intensity (I) [%] 0 weeks [1, 10]: 98 ± 2%; Apparent Rh [nm] 4 weeks [1, 10]: 2.59 ± 0.07 nm; Scattering Intensity (I) [%] 4 weeks [1, 10]: 100 ± 0%
3.04 ± 0.08	98 ± 1	3.13 ± 0.22	95 ± 4	> 9100	2.38 ± 0.23	96 ± 3	2.56 ± 0.29	100 ± 0	> 8600	> 8800	2.94 ± 0.32	96 ± 5	3.11 ± 0.14	93 ± 3	CC[C@H](C)[C@H](N)C(=O)N[C@H](C(=O)N[C@@H](CC(C)C)C(=O)N[C@@H](CO)C(=O)N[C@@H](CC(C)C)C(=O)N[C@@H](CC(=O)O)C(=O)N[C@@H](C(=O)N1CCC[C@H]1C(=O)N[C@H](C(=O)N[C@@H](CCCCN)C(=O)N[C@@H](CC(C)C)C(=O)N[C@@H](CCCCNC(=O)COCCOCCNC(=O)COCCOCCNC(=O)CC[C@H](NC(=O)CCCCCCCCCCCCCCCCC(=O)O)C(=O)O)C(=O)N[C@@H](CCC(N)=O)C(=O)N[C@H](C(=O)N[C@@H](CC(C)C)C(=O)N[C@@H](CC(C)C)C(=O)N[C@@H](CCCCN)C(=O)N[C@@H](CCC(N)=O)C(=O)N[C@@H](CCC(=O)O)C(=O)N[C@@H](CCCNC(=N)N)C(=O)N[C@@H](CCC(N)=O)C(=O)N[C@@H](CCCCN)C(=O)N[C@@H](CCCCN)C(=O)N[C@@H](CCC(N)=O)C(=O)N[C@@H](CCCNC(=N)N)C(=O)N[C@@H](CCC(N)=O)C(=O)N[C@@H](CCC(N)=O)C(=O)N[C@@H](C)C(=O)N[C@@H](CCC(=O)O)C(=O)N[C@@H](CCCCN)C(=O)N[C@@H](CC(N)=O)C(=O)N[C@@H](CCCCN)C(=O)N[C@@H](CCC(N)=O)C(=O)N[C@H](C(=O)N[C@@H](CC(C)C)C(=O)N[C@@H](C)C(=O)N[C@@H](CCC(N)=O)C(=O)N[C@H](C(N)=O)C(C)C)[C@@H](C)CC)[C@@H](C)CC)[C@@H](C)CC)C(C)C)C(C)C [compound 139] (H-IVLSLD[dV]PIKLK([AEEA-AEEA-γGlu-C18 diacid])QILLKQERQKKQRQQAEKNKQILAQV-NH2; N-terminus assumed)	–

— patent US12679878B2, “CRF2 receptor agonists and their use in therapy” (SANOFI, priority 2020, dated 2026)
